Numbered stars: 1 amine (or outer) side, 2 acyl side, 3 side chain; on linkers, the order of the positions; unused ones are H or OH. Bridge positions count the residues as written; N and C are the ends. Side chains are listed from the residue outwards. Peptide text beside a SMILES is read from it. * marks the point of attachment. C20 diacid = O=C(O)CCCCCCCCCCCCCCCCCCC(=O)*; γGlu = O=C(O)[C@H](CCC(=O)[*:2])N[*:1]
What was measured:
[1] = ASSAY (III) ThT fibrillation assay for physical stability; format: physicochemical
How it was run: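 Physical stability scored by ThT fluorescence (444 nm excitation, 485 nm emission) tracked every 20 min during 37 °C incubation with 960 rpm shaking, ThT at 1 μM final. Values are replicate means with SD at chosen times; HPLC against pramlintide standard gives initial and post-assay soluble concentrations.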

[2] = molecular target: T1, rat amylin receptor (rat calcitonin receptor + rat RAMP 3) (Rattus norvegicus, UniProt P32214+Q9JJ73); assay: ASSAY (VI) binding to the rat amylin receptor; conditions: for IC50: binding to rat amylin receptor, read-out: rAmylin-R bind IC50
T1 construct: expressed in transfected cells; host or cells: BHK tk'ts 13 (transient, FuGENE 6), membranes
T1 sequence (P32214 25-479 isoform P32214-2 limits assumed): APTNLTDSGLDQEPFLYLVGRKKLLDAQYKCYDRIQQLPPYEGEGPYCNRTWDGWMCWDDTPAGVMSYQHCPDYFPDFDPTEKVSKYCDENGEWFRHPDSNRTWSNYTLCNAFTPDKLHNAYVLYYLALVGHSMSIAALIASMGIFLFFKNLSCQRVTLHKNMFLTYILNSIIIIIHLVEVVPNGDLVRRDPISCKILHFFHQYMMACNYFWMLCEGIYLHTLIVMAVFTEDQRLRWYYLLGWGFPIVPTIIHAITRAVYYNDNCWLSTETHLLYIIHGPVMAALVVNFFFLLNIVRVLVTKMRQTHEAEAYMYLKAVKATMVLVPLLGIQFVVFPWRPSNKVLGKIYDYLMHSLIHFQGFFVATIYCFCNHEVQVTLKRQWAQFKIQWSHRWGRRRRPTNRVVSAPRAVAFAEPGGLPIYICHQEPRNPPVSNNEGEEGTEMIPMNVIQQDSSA
T1 sequence (Q9JJ73 23-147 partner): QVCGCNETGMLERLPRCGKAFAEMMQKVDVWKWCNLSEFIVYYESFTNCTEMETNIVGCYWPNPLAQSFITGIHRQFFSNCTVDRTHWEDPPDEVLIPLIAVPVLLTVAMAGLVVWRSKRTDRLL
How it was run: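 Membranes for this rat amylin receptor binding assay came from BHK tk′ts 13 cells. The cells were transiently transfected with rat calcitonin receptor using the FuGENE® 6 reagent from Roche, as the manufacturer recommends. The cells were collected approximately 48 hours after transfection, and membranes were then prepared.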

[3] = Table 7, rat binding selectivity, rCTR IC50 / rAmylin-R IC50
[4] = Table 7a (preferred compounds), rat binding selectivity, rCTR IC50 / rAmylin-R IC50
[5] = ratio of rCTR bind IC50 to rAmylin-R bind IC50

| Structure (SMILES) | ThT pH 4.0 lag time (h) [1] | IC50 ([2]; Table 7) | Ratio rCT/rAmylin binding [2, 3] | Ratio rCT/rAmylin binding [2, 4] | Ratio rCT/rAmylin binding [2, 5] |
| --- | --- | --- | --- | --- | --- |
| CC[C@H](C)[C@H](NC(=O)[C@H](C)NC(=O)CNC(=O)[C@H](Cc1ccccc1)NC(=O)[C@H](CC(N)=O)NC(=O)[C@@H]1CCCN1C(=O)[C@H](CO)NC(=O)[C@H](CO)NC(=O)[C@H](Cc1c[nH]cn1)NC(=O)[C@H](CCCNC(=N)N)NC(=O)[C@H](CC(C)C)NC(=O)[C@H](Cc1ccccc1)NC(=O)[C@H](CC(=O)O)NC(=O)[C@H](C)NC(=O)[C@H](CC(C)C)NC(=O)[C@H](CCCNC(=N)N)NC(=O)[C@H](CCC(N)=O)NC(=O)[C@@H](NC(=O)[C@H](C)NC(=O)[C@@H]1CSSC[C@H](NC(=O)[C@@H](N)CCCCNC(=O)CC[C@H](NC(=O)CCCCCCCCCCCCCCCCCCC(=O)O)C(=O)O)C(=O)N[C@@H](CC(N)=O)C(=O)N[C@@H]([C@@H](C)O)C(=O)N[C@@H](C)C(=O)N[C@@H]([C@@H](C)O)C(=O)N1)[C@@H](C)O)C(=O)N1CCC[C@H]1C(=O)N[C@@H](CO)C(=O)N[C@@H](CO)C(=O)N[C@H](C(=O)N[C@@H](CC(N)=O)C(=O)N[C@H](C(=O)NCC(=O)N1CCC[C@H]1C(=O)N[C@@H](CCCNC(=N)N)C(=O)N[C@H](C(=O)N[C@@H](Cc1ccc(O)cc1)C(N)=O)[C@@H](C)O)C(C)C)[C@@H](C)O [Example 129] (H-K([γGlu-C20 diacid])CNTATCATQRLADFLRHSSPNFGAIPSSTNVGPRTY-NH2; disulfide 2-7 (inferred); N-terminus assumed) | 45 h | 0.504 nM | 116.0 | 116.0 | 116.0 |
| CC[C@H](C)[C@H](NC(=O)[C@H](C)NC(=O)CNC(=O)[C@H](Cc1ccccc1)NC(=O)[C@H](CC(N)=O)NC(=O)[C@@H]1CCCN1C(=O)[C@H](CO)NC(=O)[C@H](CO)NC(=O)[C@H](Cc1c[nH]cn1)NC(=O)[C@H](CCCNC(=N)N)NC(=O)[C@H](CC(C)C)NC(=O)[C@H](Cc1ccccc1)NC(=O)[C@H](CC(=O)O)NC(=O)[C@H](C)NC(=O)[C@H](CC(C)C)NC(=O)[C@H](CCCNC(=N)N)NC(=O)[C@H](CCC(N)=O)NC(=O)[C@@H](NC(=O)[C@H](C)NC(=O)[C@@H]1CSSC[C@H](NC(=O)[C@@H](N)CCCCNC(=O)CC[C@H](NC(=O)CC[C@H](NC(=O)CCCCCCCCCCCCCCCCCCC(=O)O)C(=O)O)C(=O)O)C(=O)N[C@@H](CC(N)=O)C(=O)N[C@@H]([C@@H](C)O)C(=O)N[C@@H](C)C(=O)N[C@@H]([C@@H](C)O)C(=O)N1)[C@@H](C)O)C(=O)N1CCC[C@H]1C(=O)N[C@@H](CO)C(=O)N[C@@H](CO)C(=O)N[C@H](C(=O)N[C@@H](CC(N)=O)C(=O)N[C@H](C(=O)NCC(=O)N1CCC[C@H]1C(=O)N[C@@H](CCCNC(=N)N)C(=O)N[C@H](C(=O)N[C@@H](Cc1ccc(O)cc1)C(N)=O)[C@@H](C)O)C(C)C)[C@@H](C)O [Example 130] (H-K([γGlu-γGlu-C20 diacid])CNTATCATQRLADFLRHSSPNFGAIPSSTNVGPRTY-NH2; disulfide 2-7 (inferred); N-terminus assumed) | 45 h | 0.93 nM | 239.5 | 239.5 | 239.5 |

— US9023789B2, “Amylin analogs and pharmaceutical compositions thereof” (Novo Nordisk A/S, priority 2012, dated 2015)
